We go through 2 compounds from patent US20130253048A1, “Pharmaceutical Composition for Promoting Osteogenesis Containing Axial-equatorial Aryl-oriented Furofuran-type Lignan, and Pharmaceutical Preparation, Functional Food Product, and Health Food Product Comprising Composition” (ERINA CO., INC., priority 2010, published 2013).

Data set [1] relates to ovariectomized mouse (OVX mouse). Nature of the data set: Bone formation in ovariectomized mouse (OVX mouse), dosing after bone resorption induction period, femur pQCT. The format is in vivo. To be noted: 80 μg/kg/day s.c. As for the experimental part: Four-week-old female Slc; ddy mice (Japan SLC, Inc.) were purchased, and they were divided into 8 groups without acclimate keeping (6 mice per group). They were anesthetized by using 50 mg/kg of pentobarbital to be ovariectomized (it is referred to as “OVX” herein below) or to have Sham operation (it is referred to as “Sham” herein below) under the anesthesia which is given by intraperitoneal administration of 50 mg/kg of Somnopentyl (pentobarbital sodium).
From the second day of the ovariectomy (or Sham operation), each group was maintained under the condition of 12 hour light/dark cycle, 23±3 degree centigrade as the room temperature, and humidity 55±5% for 2 months as the bone resorption induction period. The animal bedding was exchanged twice a week and all fresh bedding was used at all times. CRF-1 (Oriental Yeast Co., Ltd.) as the feed and deionized water as drinking water were freely given.
After two month period from the test start, the bone resorption induction period, the test substance were given to each group at the amount shown in the following Table 7 for 3 month.
Ninety % of MeOH fraction (Shin-i) obtained in Example 1 and Fargesin (may refer to “Far” thereafter) were respectively dissolved into TD solution at the concentration shown in Table 7, and then they were administrated per os.
Human PTH (1-34) (herein below, it is sometimes referred to as “hPTH (1-34)”) were dissolved in distilled water at the concentration of 80 μg/kg/day, and it was administrated subcutaneously.
After 3 month from the administration start, the mice belonging to all of the groups were weighed. They were anesthetized by using diethylether, and were collected their blood from their hearts, and then they were died. Then, organs such as the uterus, the white adipose tissue (WAT), the brown adipose tissue (BAT), the liver, the spleen, and both left and right lower extremities were removed. The left and right lower extremities were separated into the femurs and the tibias, and they were stored in 70% EtOH under the room temperature.
The muscles were removed from the obtained femur (right), and then its bone density and the like were measured by using pQCT employed in Example 1 under the following conditions.
Recognition of contour (CONTMODE): 2 (auto search of ROI)
Recognition method of cancellous bone: Surface & Area
Ration of cancellous bone area to all of the cross section areas: 35%
CORTMODE used in CORTBD: 1* * Voxels not larger than the standard value for distinguishing the cortical bone from the cancellous bone (threshold: threshold) were omitted. Each tissue weight was also measured.
TH value used in CORTBD: 690
Among the all data of cancellous bone density obtained from pQCT, both of the highest and the lowest data were deleted to obtain the Median. As to the other parameters were treated as the same as this, the graph was made with N=6. Statistical analysis was performed by using the Dennett's two-sided t test.

The next data set deals with TRACP5b. Nature of the data set: Serum TRACP5b of OVX mice (bone metabolism marker). It counts as in vivo, mouse. To be noted: 80 μg/kg/day s.c.; compared to the OVX group. The protocol:
All obtained blood from the heart under diethyl ether anesthesia at dissection was stored at 4 degree centigrade for 24 hours. Then, the blood was centrifuged at 3,000 rpm (4,000×g) for 15 minutes to separate the sera.
According to the protocol of Mouse TRAP™ Assay (Immuno-diagnostic Systems Ltd, the United of Kingdom), TRACP5b in the obtained sera was determined.

For data set [2], the system named is ovariectomized mouse (type I osteoporosis model animal). Nature of the data set: Change of bone mass in type I osteoporosis model animal (ovariectomized mice, dosing 3 months, femur pQCT). It counts as in vivo. From the text:
Female Slc: ddy mice of 4 weeks old (Japan SLC, Inc.) was operated with ovariectomy to use as a type I osteoporosis model animal. Also, in order to delete the affection by invasion, a group which is operated without ovariectomy (Sham operation) is set (Sham group). These were the […] model animals.
Animal bedding were changed twice a week and always to use all fresh one, CRF-1 (Oriental Yeast Co., Ltd.) is fed as feed and deionized water as drinking water were freely given. Their body weights were weighed twice a week by the end of the experiment.
Fargesin was dissolved in 30 mL of a solution (it is referred to as “TD solution”, hereinbelow) containing 4% dimethyl sulfoxide (it is referred to as “DMSO”, hereinbelow) and 4% TWEEN 80 (both were purchased from Wako Pure Chemical Industries, Ltd.) so as that a dosage amount of fargesin becomes 20 mg/kg body wt/day, or […].
After the surgical operation, the mice were adapted to the circumstances for 5 days, and then they were divided to the Sham group, the negative control, the positive control group, and the test substance administration group (6 mice per group). The ovariectomized mice were used for the negative control group, the positive control group, and the test substance administration group.
Fargesin solution was daily administrated to the ovariectomized mice in the test group at the dosage of 20 mg/kg body wt/day (it is referred to as “F20 group”, hereinbelow) or 100 mg/kg body wt/day (it is referred to as “F100 group”, hereinbelow) for 3 month p.o.
In order to study effects of fargesin on the bone, the femur, the largest long bone, was used.
The mice in each group were killed by the cervical dislocation under diethyl ether anesthesia. Their right femurs were excised with muscles, and the muscles were removed from the femur after the excision. Lengths of the excised bones from the mice in the groups were measured, and they were dipped in 70% ethanol to be fixed.
In FIG. 3, the bone was shown schematically. The long bone (tubular bone) was composed of two thick and rounded ends (epiphysis), and thin and long part between them (a shaft). The bone extends to longitudinal direction, depending on the growth of a plate-shape epiphyseal cartilage (a growth plate) between the epiphysis and the shaft. The region of 1 mm proximal side from the A position for a measurement was set to that from 1 mm proximal region (epiphysis) from the distal growth plate as decided as the measurement region.
The bone density was measured by using the peripheral quantitative computed tomography (pQCT, XCT Research SA+, Stratec Medizintechnik GmbH, Merk Ltd) (FIG. 3B). The measurement was performed under the conditions: a diameter of 90 mm, a voxel size of 0.12 mm, a CT speed of 10 mm/sec, and a block number of 1. Bone mineral content (mg/mm), bone density (mg/cm^3), and cross section of the bone (mm^2) of the entire of tomographic images (whole bone area) were calculated.
Next, the area of the cancellous bone was extracted (peel mode 20), and then the bone mineral amount (mg/mm), the section of the bone (mm^2), and the bone density (mg/cm^3) were calculated. Further to the cortical bone, the bone mineral amount (mg/mm), the bone density (mg/cm^3), the section of the bone (mm^2), a bone thickness (mm), the periosteum perimeter of the cortical bone (mm), and the endosteum perimeter of the cortical bone (mm) were calculated.
Based on the bone diameter and the bone density measured by the pQCT, SSI was calculated. SSI is composed of Polar SSI (torsion strength in polar coordination), X-axis SSI (strength in X axis, three-point bending strength), and Y-axis SSI (Y axis strength, three-point lateral bending strength), and it is expressed by the following general equation.
Wherein, Z is the coefficient of the cross section (mm^3), CBD is the bone density of the cortical bone (mg/cm^3), and ND is the physiological bone density (1200 mg/cm^3). The coefficient Z is shown as the following equation.

[3] abbreviates: OVX mice, 3 months dosing after 2-month induction.
Where [4] appears, read: OVX mice, B100 group: 100 μg/kg body wt/day i.p.
The mark [5] stands for this setting: OVX mice, B100 group: 100 μg/kg body wt/day i.p. (text prints F100 group).
The mark [6] stands for this setting: OVX mice, B100 group: 100 μg/kg body wt/day i.p., right femur, pQCT.

With “hPTH(1-34): Human PTH (1-34), dissolved in distilled water, administrated subcutaneously [reference compound]”, in data set [1] (5M Sham = 100), the “Bone density of cancellous bone, relative value” is 76.1; the “Bone density of cortical bone, relative value” was found to be 92.2; the “Bone density of the whole bones, relative value” amounted to 86.0. Also, in data set [1] (compared to Control OVX group), the “Bone strength (polar coordinates torsion strength)” value is listed as “significantly increased”. Further, in data set [1] (setting [3]), the “Bone density of cancellous bone” value is on record as 88.83 ± 30.90 mg/cm^2, the “Bone density of cortical bone” value was determined as 906.50 ± 32.19 mg/cm^2, the “Bone thickness of cortical bone” value was 0.22 ± 0.03 mm and the “Cross section area of cortical bone” value is listed as 1.69 ± 0.25 mm^2. In data set [1] (setting [3]), the “Perimeter of cortical bone adventitia” value was found to be 8.37 ± 0.26 mm and the “Perimeter of cortical bone lining membrane” value came out at 6.98 ± 0.34 mm. Moreover, the “Bone density of the whole bones” value in data set [1] (OVX mice, 3 months dosing after 2-month induction, right femur, pQCT) worked out at 452.25 ± 49.00 mg/cm^2. Moreover, the “level of TRACP5b in the sera” value in the data set on TRACP5b is “did not show major alteration”.

For `C[C@]12CC[C@@H]3c4ccc(O)cc4CC[C@H]3[C@@H]1CC[C@@H]2O` [β-estradiol, reference compound], the “Average body weight during mouse growth” value in data set [2] (B100 group: 100 μg/kg body wt/day i.p., versus NC group) is reported as “lower than that of NC group mice”. In addition, in data set [2] (setting [4]), the “Cortical bone Bone density” value was 867.475 ± 13.724 mg/mL, the “Cortical bone Bone thickness” value was 0.365 ± 0.038 mm, the “Cortical bone adventitia diameter” value was 7.9895 ± 0.096 mm and the “Cortical bone lining membrane diameter” value is listed as 5.699 ± 0.229 mm. Moreover, in data set [2] (setting [4]), the “Polar axis bone strength (Table 3)” value was found to be 1.946 ± 0.107 mm^3; the “bone mineral mass, cancellous bone” value is on record as 0.725±0.110 mg/mm; the “bone mineral mass, whole bone” value was 3.325±0.203 mg/mm. Also, in data set [2] (setting [5]), the “bone mineral mass, cortical bone” value is 2.163±0.230 mg/mm and the “cross section area of the bone, cortical bone” value was 2.4825±0.230 mm^2. Also, the “Polar axis strength (polar coordinates strength)” value in data set [2] (OVX mice, B100 group: 100 μg/kg body wt/day i.p., SSI from pQCT) turned out to be 1.376±0.088 mm^3. For the same compound, in data set [2] (setting [6]), the “Bone density Cancellous bone” value was found to be 399.050 ± 53.851 mg/mL and the “Bone density whole bone” value is 652.025 ± 28.386 mg/mL.
